Source: US20090018111A1, “Novel Antimicrobial Medicament” (priority 2004, published 2009)
Where two headings read alike, the source gives them in different places.

Legend:
Assay in all cases: Sensitivity test (agar dilution)
E. aerogenes ATCC13048 = type: cell-based, Enterobacter aerogenes; conditions: Klebsiella aerogenes, E. aerogenes ATCC13048
Outline: (§1)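 Agar dilution, MHA; twofold serial drug dilutions (single or combination). Overnight 37° C cultures in gelatin-containing buffered saline, ~10^6 CFU/ml, ~5 μl spots. Endpoint MIC; FIC index calculated.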

Str. pyogenes Cook = type: cell-based, Streptococcus pyogenes; conditions: Streptococcus pyogenes, Str. pyogenes Cook
Outline: as §1

E. faecalis ATCC19433 = type: cell-based, Enterococcus faecalis; conditions: Enterococcus faecalis, E. faecalis ATCC19433
Outline: as §1

E. coli NIHJ JC-2 = type: cell-based, Escherichia coli; conditions: Escherichia coli, E. coli NIHJ JC-2
Outline: as §1

E. coli ML1410 = type: cell-based, Escherichia coli; conditions: Escherichia coli, E. coli ML1410
Outline: as §1

B. subtilis ATCC6633 = type: cell-based, Bacillus subtilis; conditions: Bacillus subtilis, B. subtilis ATCC6633
Outline: as §1

P. aeruginosa IFO3451 = type: cell-based, Pseudomonas aeruginosa; conditions: Pseudomonas aeruginosa, P. aeruginosa IFO3451
Outline: as §1

P. aeruginosa TL-2666 = type: cell-based, Pseudomonas aeruginosa; conditions: Pseudomonas aeruginosa, P. aeruginosa TL-2666
Outline: as §1

P. aeruginosa TL-2667 = type: cell-based, Pseudomonas aeruginosa; conditions: Pseudomonas aeruginosa, P. aeruginosa TL-2667
Outline: as §1

[1] = tested on: S. aureus MS94088 (hetero-MRSA); type: cell-based, Staphylococcus aureus; conditions: Staphylococcus aureus, MRSA, S. aureus MS94088 (hetero-MRSA)
Outline: as §1

S. aureus 209P = type: cell-based, Staphylococcus aureus; conditions: Staphylococcus aureus, 209P, S. aureus 209P
Outline: as §1

P. vurgalis OX-19 = type: cell-based, Proteus vulgaris; conditions: Proteus vulgaris, P. vurgalis OX-19
Outline: as §1

P. vulgaris GN7919 = type: cell-based, Proteus vulgaris; conditions: Proteus vulgaris, P. vulgaris GN7919
Outline: as §1

[2] = Concomitant (AZT:SM = 1:1), read-out: MIC concomitant
[3] = drug alone, read-out: MIC alone

`C[C@H]1[C@H](NC(=O)/C(=N\OC(C)(C)C(=O)O)c2csc(N)n2)C(=O)N1S(=O)(=O)O` [AZT, aztreonam] gave an MIC (E. aerogenes ATCC13048; ATCC13048, Concomitant (AZT:SM = 1:1), read-out: MIC concomitant) of 8 µg/mL, an MIC (E. aerogenes ATCC13048; ATCC13048, drug alone, read-out: MIC alone) of 0.063 µg/mL and an MIC (Str. pyogenes Cook; [2]) of 0.004 µg/mL. For the same compound, the MIC (Str. pyogenes Cook; [3]) was 16 µg/mL, the MIC (E. faecalis ATCC19433; ATCC19433, Concomitant (AZT:SM = 1:1), read-out: MIC concomitant) was 1 µg/mL and the MIC (E. faecalis ATCC19433; ATCC19433, drug alone, read-out: MIC alone) was over 32 µg/mL. It also gave an MIC (E. coli NIHJ JC-2; NIHJJC2, Concomitant (AZT:SM = 1:1), read-out: MIC concomitant) of 0.063 µg/mL, an MIC (E. coli NIHJ JC-2; NIHJJC2, drug alone, read-out: MIC alone) of 0.063 µg/mL and an MIC (E. coli ML1410; ML1410, Concomitant (AZT:SM = 1:1), read-out: MIC concomitant) of 0.063 µg/mL. It also gave an MIC (E. coli ML1410; ML1410, drug alone, read-out: MIC alone) of 0.125 µg/mL, an MIC (B. subtilis ATCC6633; ATCC6633, Concomitant (AZT:SM = 1:1), read-out: MIC concomitant) of at most 0.002 µg/mL and an MIC (B. subtilis ATCC6633; ATCC6633, drug alone, read-out: MIC alone) of over 32 µg/mL. It also gave an MIC (P. aeruginosa IFO3451; IFO3451, Concomitant (AZT:SM = 1:1), read-out: MIC concomitant) of 2 µg/mL, an MIC (P. aeruginosa IFO3451; IFO3451, drug alone, read-out: MIC alone) of 2 µg/mL and an MIC (P. aeruginosa TL-2666; TL2666, Concomitant (AZT:SM = 1:1), read-out: MIC concomitant) of 8 µg/mL. The MIC (P. aeruginosa TL-2666; TL2666, drug alone, read-out: MIC alone) was 2 µg/mL, the MIC (P. aeruginosa TL-2667; TL2667, Concomitant (AZT:SM = 1:1), read-out: MIC concomitant) was 8 µg/mL and the MIC (P. aeruginosa TL-2667; TL2667, drug alone, read-out: MIC alone) was 2 µg/mL. The MIC [1, 2] was 0.25 µg/mL, the MIC [1, 3] was over 32 µg/mL and the MIC (S. aureus 209P; [2]) was 0.008 µg/mL. For the same compound, the MIC (S. aureus 209P; [3]) was over 32 µg/mL, the MIC (P. vurgalis OX-19; OX19, Concomitant (AZT:SM = 1:1), read-out: MIC concomitant) was 0.004 µg/mL and the MIC (P. vurgalis OX-19; OX19, drug alone, read-out: MIC alone) was 0.004 µg/mL. It also gave an MIC (P. vulgaris GN7919; GN7919, Concomitant (AZT:SM = 1:1), read-out: MIC concomitant) of 0.25 µg/mL and an MIC (P. vulgaris GN7919; GN7919, drug alone, read-out: MIC alone) of 0.125 µg/mL.
